Experimental data reported in patent publication US20080050398A1, “Composition Comprising Beta-Defensin 2” (priority 2005, published 2008).
No end group written: not given here.

Experiments:
Propionibacterium acnes = experiment: Inhibition of skin microorganisms by human β-defensin 2: CFU count, reduction factor vs control; format: cell-based; conditions: P. acnes; for inhibition of the microorganism (in words): harmful organism; for logarithmic decrease in the cell number (RF): 35.7 μg/ml, compared with the control
Experimental: (§1) Staphylococcus epidermidis and bacillus lichenformis were grown in LB medium under aerobic conditions at 37° C. Propionibacterium acnes was grown in TBST medium under anaerobic conditions at 37° C. The concentration of human β-defensin 2 was 35.7 μg/ml. Procedure: 18-hour cultures (S. epidermidis and B. lichenformis) or 5-day cultures (P. acnes) in LB or TBST liquid media; Measurement of the cultures at A620 nm; Adjustment in PBS [phosphate-buffered saline] to the proper A620 nm for 10^6 CFU/ml of the test strain; Microbial content checked with a dilution series in MTP brief procedure and plating; Make up stock solution of the ingredient AWK in PBS; Put 10 μl aliquots of the test strain suspension in the PCR tubes provided for AWK and control; Add to each 10 μl aliquots of AWK or PBS; Incubate aerobically at 37° C.; Determine the microbial content of the suspensions after 8 and 24 hours, with a dilution series in the MTP brief procedure and plating; Incubation of the agar plates under proper conditions for the strain; Evaluation, by visual check of the cultured agar plates, 8 or 24 hours after the start of the test; determination of the CFU and calculation of the reduction factors.

[1] = system: Staphylococcus epidermidis; experiment: as above; format: cell-based; conditions: S. epidermidis; for inhibition of the microorganism (in words): useful skin microorganism; for logarithmic decrease in the cell number (RF): 35.7 μg/ml, compared with the control
Experimental: as §1

bacillus lichenformis = experiment: as above; format: cell-based; conditions: B. lichenformis; for inhibition of the microorganism (in words): useful skin microorganism; for logarithmic decrease in the cell number (RF): 35.7 μg/ml, compared with the control
Experimental: as §1

corolase = experiment: Compatibility of surfactants with enzymes: remaining enzyme activity; format: biochemical; conditions: 1% SDS, within 15 minutes
Experimental: (§2) In selection of suitable surfactants, one must make sure that they are compatible with the enzymes used. It is preferable that the enzyme activity not decrease more than 50%, particularly not more than 30%, during a typical average working time of 15 minutes. Thus, tests have shown that sodium dodecyl sulfate (SDS), which is known to be a denaturant, reduces the activity of corolase to less than 30% within 15 minutes, even at a concentration of 1%, while the activity of xylanase decreases to less than 40% with only 0.1% SDS, so that surfactant is not preferred for use in the cleaning agents according to the invention. If that surfactant, or one with similar action, must nevertheless be used, one should preferably make sure of spatial separation during storage, such as by encapsulating the enzyme or by use of a multichamber bottle so that the enzyme and surfactant come into contact with each other only immediately before or during use. Alkyl polyglycosides, on the other hand, are well suited for use in enzyme-containing agents according to this invention. For instance, the activity of corolase remains clearly over 50% even with 3% APG 600, while xylanase actually experiences an increase in activity from the use of APG 600 (more than 150% activity with 0.1% surfactant) and still has more than 80% activity with 3% APG.

xylanase = experiment: as above; format: biochemical; conditions: 0.1% SDS
Experimental: as §2

Compound	inhibition of the microorganism (in words) (Propionibacterium acnes; listed as human β-defensin 2)	inhibition of the microorganism (in words) (Propionibacterium acnes; listed as β-defensin 2)	logarithmic decrease in the cell number (RF) (Propionibacterium acnes; exposure time 8 hr)	logarithmic decrease in the cell number (RF) (Propionibacterium acnes; exposure time 24 hr)	inhibition of the microorganism (in words) ([1]; listed as human β-defensin 2)	inhibition of the microorganism (in words) ([1]; listed as β-defensin 2)	logarithmic decrease in the cell number (RF) ([1]; exposure time 8 hr)	logarithmic decrease in the cell number (RF) ([1]; exposure time 24 hr)	inhibition of the microorganism (in words) (bacillus lichenformis; listed as human β-defensin 2)	inhibition of the microorganism (in words) (bacillus lichenformis; listed as β-defensin 2)	logarithmic decrease in the cell number (RF) (bacillus lichenformis; exposure time 8 hr)	logarithmic decrease in the cell number (RF) (bacillus lichenformis; exposure time 24 hr)	activity of corolase (corolase)	activity of xylanase (xylanase)
human β-defensin 2 (GIGDPVTCLKSGAICHPVFCPRRYKQIGGCGLPGTKCCKKP; ends and bridges not checked; cysteine pairing not given here) [used as hBD2 (Sigma) in the formulations]	good inhibition	distinctly more strongly inhibited	0.9586	1.833	only slight inhibition	only a slight inhibitory effect	0.1963	0.09922	only slight inhibition	only a slight inhibitory effect	0.09275	0.3716		
CCCCCCCCCCCCOS(=O)(=O)[O-].[Na+] [SDS, sodium dodecyl sulfate]													less than 30%	less than 40%
